This passage reports IC50 and IC95 results from ChEMBL document CHEMBL1150540, “Aromatic P1 replacements for the highly potent HIV-1 protease inhibitor CRIXIVAN” (Bioorg Med Chem Lett, 1996).

Assay [1] deals with Human immunodeficiency virus type 1 protease (Human immunodeficiency virus 1, UniProt Q72874). The assay is described as follows: Inhibition of HIV-1 protease.
Assay [2] addresses Human immunodeficiency virus type 1 protease (Human immunodeficiency virus 1) (UniProt Q72874). Description: In vitro inhibition of HIV-1 protease, activity expressed as CIC95 in whole cell assay.

pIC50: −log10 of the molar value.

With `NS(=O)(=O)c1ccccc1C[C@@H](O)C[C@@H](Cc1ccccc1)C(=O)N[C@H]1c2ccccc2C[C@H]1O`, the pIC50 in assay [1] was 6.54.

With `CC(C)COc1ccccc1C[C@@H](O)C[C@@H](Cc1ccccc1)C(=O)N[C@H]1c2ccccc2C[C@H]1O`, the pIC50 in assay [1] was 7.01.

For the compound `CC(C)(C)NC(=O)[C@@H]1CNCCN1C[C@@H](O)C[C@@H](Cc1ccccc1)C(=O)N[C@H]1c2ccccc2C[C@H]1O`, in assay [1], the pIC50 was 7.42. Moreover, it took 3000 nM to reach the 95% level in assay [2] (IC95).

In turn, `CSc1ccccc1C[C@@H](O)C[C@@H](Cc1ccccc1)C(=O)N[C@H]1c2ccccc2C[C@H]1O` gave a pIC50 in assay [1] of 7.02.

For `COc1ccc(C[C@@H](O)C[C@@H](Cc2ccccc2)C(=O)N[C@H]2c3ccccc3C[C@H]2O)c(OC)c1`, the pIC50 in assay [1] is 6.98.

Regarding `COc1cc(Oc2ccccc2)ccc1C[C@@H](O)C[C@@H](Cc1ccccc1)C(=O)N[C@H]1c2ccccc2C[C@H]1O`, the pIC50 in assay [1] was 7.35.

For `O=C(N[C@H]1c2ccccc2C[C@H]1O)[C@H](Cc1ccccc1)C[C@H](O)Cc1ccccc1O`, in assay [1], the pIC50 was 5.80.

In turn, `CC(C)(C)NS(=O)(=O)c1ccccc1C[C@@H](O)C[C@@H](Cc1ccccc1)C(=O)N[C@H]1c2ccccc2C[C@H]1O` gave a pIC50 in assay [1] of 8.22.

Turning to `COCOc1ccccc1C[C@@H](O)C[C@@H](Cc1ccccc1)C(=O)N[C@H]1c2ccccc2C[C@H]1O`, the pIC50 in assay [1] is 6.56.

Turning to `O=C(N[C@H]1c2ccccc2C[C@H]1O)[C@H](Cc1ccccc1)C[C@H](O)Cc1ccccc1`, the pIC50 in assay [1] was 5.92.

Consider `CC(C)(C)NC(=O)c1ccccc1C[C@@H](O)C[C@@H](Cc1ccccc1)C(=O)N[C@H]1c2ccccc2C[C@H]1O`, for which, in assay [1], the pIC50 is 8.33. Further, the 95% effect level in assay [2] (IC95) was put at 800 nM.

In the case of `CS(=O)(=O)c1ccccc1C[C@@H](O)C[C@@H](Cc1ccccc1)C(=O)N[C@H]1c2ccccc2C[C@H]1O`, in assay [1], the pIC50 is 6.50.

With `COc1ccccc1C[C@@H](O)C[C@@H](Cc1ccccc1)C(=O)N[C@H]1c2ccccc2C[C@H]1O`, the pIC50 in assay [1] is 7.10.

`Cc1ccc(C[C@@H](O)C[C@@H](Cc2ccccc2)C(=O)N[C@H]2c3ccccc3C[C@H]2O)c(C(=O)NC(C)(C)C)c1` had a pIC50 in assay [1] of 8.77. Besides, in assay [2], the IC95 stood at 400 nM.

The compound `CC(C)(C)NC(=O)[C@@H]1CCCCN1C[C@@H](O)C[C@@H](Cc1ccccc1)C(=O)N[C@H]1c2ccccc2C[C@H]1O` showed a pIC50 in assay [1] of 7.10.

In general, pIC50 refers to the negative decadic logarithm of the IC50, by convention in mol/L. A low value points to a high IC50. For orientation: IC95 means the point of the concentration-response curve where the effect stands at 95%. Higher therefore signals a need for much substance.
